From ChEMBL document CHEMBL1201862, “PubChem BioAssay data set” (2004)
Active and inactive are the calls of the source.

Experiments:
[1] = molecular target: Potassium voltage-gated channel subfamily KQT member 2 (Rattus norvegicus, UniProt O88943); experiment: retigabine-insensitive KCNQ2 potentiators, concentration-response, dose response, cell-based, retigabine-insensitive compounds (AID 2654); assay type: functional
Mucolipin-3 = molecular target: T1, Mucolipin-3 (Homo sapiens, UniProt Q8TDD5); experiment: Dose response cell-based high-throughput screening assay for agonists of the transient receptor potential channel ML3 (TRPML3). [Related pubchem assays: 1526, 1424, 1448 ]; assay type: functional
T1 sequence (Q8TDD5 whole entry): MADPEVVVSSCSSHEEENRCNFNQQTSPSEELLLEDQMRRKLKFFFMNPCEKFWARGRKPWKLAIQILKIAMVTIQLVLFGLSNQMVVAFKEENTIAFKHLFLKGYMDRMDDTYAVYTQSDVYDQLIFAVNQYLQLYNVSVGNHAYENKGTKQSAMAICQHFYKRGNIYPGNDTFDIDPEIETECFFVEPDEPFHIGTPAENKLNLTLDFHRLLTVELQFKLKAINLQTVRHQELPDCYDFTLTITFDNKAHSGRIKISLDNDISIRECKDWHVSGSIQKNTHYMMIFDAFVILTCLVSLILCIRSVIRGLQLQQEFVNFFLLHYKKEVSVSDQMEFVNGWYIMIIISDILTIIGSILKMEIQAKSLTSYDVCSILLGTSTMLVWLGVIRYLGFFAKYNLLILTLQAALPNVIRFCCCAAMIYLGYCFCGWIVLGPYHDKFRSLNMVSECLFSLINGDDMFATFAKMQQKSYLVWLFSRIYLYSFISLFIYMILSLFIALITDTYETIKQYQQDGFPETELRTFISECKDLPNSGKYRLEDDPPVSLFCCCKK

Ion channel NompC = Ion channel NompC (Danio rerio, UniProt Q7T1G6); experiment: Fluorescence counterscreen assay for TRPML3 agonists: dose response cell-based high-throughput screening assay to identify agonists of the transient receptor potential channel N1 (TRPN1). [Related pubchem assays: 1526, 1424, 1448 ]; assay type: functional
[2] = molecular target: DNA damage-inducible transcript 3 protein (Mus musculus, UniProt P35639); assay type: functional, Cricetulus griseus
[3] = Shn3 3'UTR reporter inhibitors, dose response, cell-based, Clone20 osteoblasts, firefly luciferase, cherry-picked (AID 624132); assay type: functional;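 further: firefly luciferase luminescence from reporter carrying the Shn3 3'UTR in osteoblasts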
[4] = HepG2 cell cytotoxicity, dose response, cytotoxicity control for Shn3 inhibitor project, CellTiter-Glo, cherry-picked (AID 624134); assay type: functional, cell-based
[5] = control 3'UTR Renilla luciferase suppression, dose response, counter-screen for Shn3 inhibitor project, cell-based, Clone20-Shn3RL, cherry-picked (AID 624133); assay type: functional
[6] = molecular target: G-protein coupled receptor 55 (Homo sapiens, UniProt Q9Y2T6); experiment: GPR55 antagonists blocking LPI-driven arrestin recruitment, primary screen, imaging, U2OS, beta-arrestin-GFP, LPI agonist (AID 2013); assay type: functional;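 further: antagonist potency measured as reduced agonist-driven arrestin aggregation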
cells [7] = assay type: functional, cell-based
cells [8] = assay type: functional, cell-based; remark: listed apart in the source
[9] = molecular target: T2, RNA-binding protein pos-1 (Caenorhabditis elegans, UniProt G5EF15); experiment: inhibitors of POS-1/mex-3 RNA binding, dose response, biochemical, fluorescence polarization (AID 1964);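 further: purified POS-1 fused to maltose binding protein made in E. coli; potency of compounds blocking POS-1 binding to fluorescent RNA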
T2 sequence (G5EF15 whole entry): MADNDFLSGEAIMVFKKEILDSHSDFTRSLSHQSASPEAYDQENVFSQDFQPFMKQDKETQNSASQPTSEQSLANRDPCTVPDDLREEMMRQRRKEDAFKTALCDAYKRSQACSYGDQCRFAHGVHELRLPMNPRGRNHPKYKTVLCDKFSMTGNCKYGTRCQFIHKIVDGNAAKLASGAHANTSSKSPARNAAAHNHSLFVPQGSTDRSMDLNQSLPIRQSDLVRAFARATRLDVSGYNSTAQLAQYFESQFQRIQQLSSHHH

[10] = molecular target: T3, Zinc finger protein mex-5 (Caenorhabditis elegans, UniProt Q9XUB2); experiment: MEX-5/TCR-2 RNA interaction inhibitors, dose response, biochemical, C. elegans, fluorescence polarization (AID 1960)
T3 sequence (Q9XUB2 whole entry): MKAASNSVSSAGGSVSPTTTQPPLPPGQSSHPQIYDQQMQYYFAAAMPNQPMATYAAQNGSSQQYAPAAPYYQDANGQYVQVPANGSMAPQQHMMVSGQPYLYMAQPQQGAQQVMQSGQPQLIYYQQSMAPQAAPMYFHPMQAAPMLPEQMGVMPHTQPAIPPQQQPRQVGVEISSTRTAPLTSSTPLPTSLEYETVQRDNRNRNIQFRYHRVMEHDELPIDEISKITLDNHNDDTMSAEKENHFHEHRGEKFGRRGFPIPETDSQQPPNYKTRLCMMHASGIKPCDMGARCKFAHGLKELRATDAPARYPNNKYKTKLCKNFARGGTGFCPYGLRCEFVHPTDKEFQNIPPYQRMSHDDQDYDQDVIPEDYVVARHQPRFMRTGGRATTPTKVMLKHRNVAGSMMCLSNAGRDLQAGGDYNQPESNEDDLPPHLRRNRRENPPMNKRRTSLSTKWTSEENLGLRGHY

[11] = molecular target: DNA dC->dU-editing enzyme APOBEC-3A (Homo sapiens, UniProt P31941); experiment: Dose Response confirmation of small molecule APOBEC3A DNA Deaminase Inhibitors via a fluorescence-based single-stranded DNA deaminase assay. [Related pubchem assays (depositor defined):AID493011, AID493024]; assay type: functional
[12] = molecular target: DNA dC->dU-editing enzyme APOBEC-3G (Homo sapiens, UniProt Q9HC16); assay type: functional;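 further: Dose-response counterscreen measuring inhibition of APOBEC3G DNA deaminase activity, run while confirming APOBEC3A inhibitors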
[13] = molecular target: T4, Histone-lysine N-methyltransferase NSD2 (Homo sapiens, UniProt O96028); assay type: biochemical
T4 sequence (O96028 whole entry): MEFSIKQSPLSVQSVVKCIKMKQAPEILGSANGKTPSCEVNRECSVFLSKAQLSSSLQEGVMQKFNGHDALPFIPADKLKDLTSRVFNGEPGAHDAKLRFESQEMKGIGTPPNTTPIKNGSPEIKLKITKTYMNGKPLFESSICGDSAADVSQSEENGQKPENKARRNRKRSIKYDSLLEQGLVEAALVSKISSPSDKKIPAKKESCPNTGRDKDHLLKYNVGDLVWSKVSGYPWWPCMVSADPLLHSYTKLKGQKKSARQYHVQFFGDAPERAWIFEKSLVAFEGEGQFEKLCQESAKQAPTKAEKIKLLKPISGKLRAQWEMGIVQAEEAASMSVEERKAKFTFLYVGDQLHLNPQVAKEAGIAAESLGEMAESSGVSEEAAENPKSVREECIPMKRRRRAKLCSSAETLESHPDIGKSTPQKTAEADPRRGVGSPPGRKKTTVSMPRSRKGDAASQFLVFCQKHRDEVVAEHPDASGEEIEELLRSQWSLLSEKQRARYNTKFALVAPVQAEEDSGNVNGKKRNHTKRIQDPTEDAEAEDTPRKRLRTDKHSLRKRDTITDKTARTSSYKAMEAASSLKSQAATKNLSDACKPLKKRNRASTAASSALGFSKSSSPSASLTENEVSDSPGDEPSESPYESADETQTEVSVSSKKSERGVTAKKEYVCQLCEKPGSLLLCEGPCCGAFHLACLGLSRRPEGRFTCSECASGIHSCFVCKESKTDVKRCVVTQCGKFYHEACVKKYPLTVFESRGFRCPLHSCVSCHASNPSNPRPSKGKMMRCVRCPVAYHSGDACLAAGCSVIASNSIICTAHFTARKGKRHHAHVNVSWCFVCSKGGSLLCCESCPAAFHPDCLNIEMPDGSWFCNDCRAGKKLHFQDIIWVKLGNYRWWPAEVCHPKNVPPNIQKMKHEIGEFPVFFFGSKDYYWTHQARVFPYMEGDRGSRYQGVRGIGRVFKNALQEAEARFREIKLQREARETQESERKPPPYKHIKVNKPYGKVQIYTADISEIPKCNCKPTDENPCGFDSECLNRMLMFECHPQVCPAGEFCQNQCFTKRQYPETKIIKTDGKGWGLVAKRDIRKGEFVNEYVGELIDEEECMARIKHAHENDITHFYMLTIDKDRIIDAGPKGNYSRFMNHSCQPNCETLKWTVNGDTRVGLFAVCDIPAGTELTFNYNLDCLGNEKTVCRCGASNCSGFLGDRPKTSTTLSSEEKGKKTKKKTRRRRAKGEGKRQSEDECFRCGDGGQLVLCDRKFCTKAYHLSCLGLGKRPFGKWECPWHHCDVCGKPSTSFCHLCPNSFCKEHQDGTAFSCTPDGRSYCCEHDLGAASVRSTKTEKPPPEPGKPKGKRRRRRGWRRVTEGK

[14] = HEp-2 cell cytotoxicity, dose response, cytotoxicity control for RSV inhibitor project, HTS (AID 2410); assay type: functional; conditions: human respiratory syncytial virus
Vero [15] = experiment: cells; assay type: functional, cell-based; conditions: Chlorocebus sabaeus
Vero [16] = experiment: cells; assay type: functional; conditions: Chlorocebus sabaeus
cells [17] = experiment: cells
[18] = NIH-3T3 fibroblast cytotoxicity, dose response, cytotoxicity control, cell-based, fluorescence, Alamar Blue, secondary assay (AID 2327); assay type: functional;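 further: NIH-3T3 mouse fibroblasts cultured with fluconazole at 8 µg/mL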
HEK293 [19] = experiment: NOD1 signaling inhibitors, primary screen, cell-based, luminescence, uHTS (AID 1578); assay type: functional; conditions: Homo sapiens
HEK293 [20] = experiment: cells; assay type: functional, cell-based; conditions: Homo sapiens
[21] = C. albicans growth with fluconazole, confirmation, fluorescence, retest (AID 2467); assay type: functional, cell-based
HEK293 [22] = experiment: cells; assay type: functional, cell-based; conditions: Homo sapiens; remark: listed apart in the source
HEK293 [23] = experiment: NOD2 signaling inhibitors in MDP-stimulated cells, cell-based, uHTS, luminescence (AID 2001); assay type: functional; conditions: Homo sapiens
[24] = inhibitors of intracellular T. cruzi replication, confirmation, NIH3T3 host cells, beta-gal luminescence (AID 2044); assay type: functional, cell-based;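 further: intracellular parasites grown in NIH/3T3 mouse fibroblasts as host cells; luminescent beta-galactosidase reporter signal from transgenic T. cruzi replicating inside host cells; inhibitors lower the luminescence signal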
[25] = cytotoxicity toward NIH3T3 fibroblasts, dose response, counter-screen, cell-based, ATP luminescence, mouse fibroblasts (AID 2010); assay type: functional;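 further: cells exposed to compound for about 90 hours before reading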
[26] = cytotoxicity in HEK-293T cells, dose response, cytotoxicity control for TCR NF-kB inhibitor project, luminescence, T-cell screen hits (AID 489026); assay type: functional, cell-based;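 further: cells exposed to compound about 14 hours before the viability readout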
[27] = molecular target: FAD-linked sulfhydryl oxidase ALR (Homo sapiens, UniProt P55789); experiment: inhibitors of human ALR sulfhydryl oxidase, dose response, biochemical, H2O2 detection, luminescence, cherry-pick (AID 493248)
[28] = molecular target: Luciferin 4-monooxygenase (Photinus pyralis, UniProt P08659); experiment: Counter Screen for Luciferase-based Assay Positives. [Related pubchem assays: 620, 618, 411 ]
HT-1080 = experiment: cytotoxicity in HT1080 fibrosarcoma cells, cell-based, fluorescence readout (AID 620); assay type: functional; conditions: Homo sapiens

Potassium voltage-gated channel subfamily KQT member 2, sequence (O88943 whole entry): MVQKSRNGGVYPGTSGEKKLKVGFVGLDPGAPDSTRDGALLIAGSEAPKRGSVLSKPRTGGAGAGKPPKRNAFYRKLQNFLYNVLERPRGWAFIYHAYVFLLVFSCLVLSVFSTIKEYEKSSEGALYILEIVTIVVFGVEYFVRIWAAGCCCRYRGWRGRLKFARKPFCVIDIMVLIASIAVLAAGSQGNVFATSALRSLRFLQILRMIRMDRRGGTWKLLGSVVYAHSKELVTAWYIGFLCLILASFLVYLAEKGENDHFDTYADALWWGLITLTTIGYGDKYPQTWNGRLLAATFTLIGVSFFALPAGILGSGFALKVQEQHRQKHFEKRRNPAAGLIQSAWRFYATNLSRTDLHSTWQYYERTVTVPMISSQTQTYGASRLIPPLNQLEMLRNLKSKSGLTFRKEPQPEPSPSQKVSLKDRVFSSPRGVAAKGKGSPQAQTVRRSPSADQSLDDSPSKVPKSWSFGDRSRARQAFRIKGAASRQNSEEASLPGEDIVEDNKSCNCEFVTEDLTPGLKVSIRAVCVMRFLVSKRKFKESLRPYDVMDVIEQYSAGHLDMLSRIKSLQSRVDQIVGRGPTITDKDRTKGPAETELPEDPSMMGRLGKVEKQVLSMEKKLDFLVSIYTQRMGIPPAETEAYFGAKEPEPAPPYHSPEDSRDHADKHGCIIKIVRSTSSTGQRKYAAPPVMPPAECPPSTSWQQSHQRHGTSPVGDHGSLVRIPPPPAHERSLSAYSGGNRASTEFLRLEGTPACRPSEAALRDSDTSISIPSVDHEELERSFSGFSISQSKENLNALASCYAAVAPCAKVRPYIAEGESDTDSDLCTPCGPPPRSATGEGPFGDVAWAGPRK
DNA dC->dU-editing enzyme APOBEC-3G, sequence (Q9HC16 whole entry): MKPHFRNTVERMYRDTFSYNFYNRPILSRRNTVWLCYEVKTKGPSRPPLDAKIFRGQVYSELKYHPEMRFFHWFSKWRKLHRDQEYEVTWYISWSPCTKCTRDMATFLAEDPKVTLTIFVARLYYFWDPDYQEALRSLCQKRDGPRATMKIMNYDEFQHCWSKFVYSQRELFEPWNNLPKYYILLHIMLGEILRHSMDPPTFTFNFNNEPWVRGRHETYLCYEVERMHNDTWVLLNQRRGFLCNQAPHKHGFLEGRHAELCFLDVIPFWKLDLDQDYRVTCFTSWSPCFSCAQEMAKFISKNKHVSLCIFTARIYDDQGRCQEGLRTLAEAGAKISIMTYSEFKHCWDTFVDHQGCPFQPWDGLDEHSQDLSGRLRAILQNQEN
DNA dC->dU-editing enzyme APOBEC-3A, sequence (P31941 whole entry): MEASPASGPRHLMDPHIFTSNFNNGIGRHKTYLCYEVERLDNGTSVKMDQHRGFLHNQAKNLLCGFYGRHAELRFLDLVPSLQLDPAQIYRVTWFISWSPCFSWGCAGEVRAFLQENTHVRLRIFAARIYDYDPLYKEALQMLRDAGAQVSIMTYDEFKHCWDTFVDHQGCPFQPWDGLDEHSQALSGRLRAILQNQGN
DNA damage-inducible transcript 3 protein, sequence (P35639 whole entry): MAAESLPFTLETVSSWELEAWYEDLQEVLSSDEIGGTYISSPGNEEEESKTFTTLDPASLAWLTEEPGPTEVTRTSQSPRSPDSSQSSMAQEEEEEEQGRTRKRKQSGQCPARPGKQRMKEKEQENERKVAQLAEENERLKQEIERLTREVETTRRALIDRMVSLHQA
G-protein coupled receptor 55, sequence (Q9Y2T6 whole entry): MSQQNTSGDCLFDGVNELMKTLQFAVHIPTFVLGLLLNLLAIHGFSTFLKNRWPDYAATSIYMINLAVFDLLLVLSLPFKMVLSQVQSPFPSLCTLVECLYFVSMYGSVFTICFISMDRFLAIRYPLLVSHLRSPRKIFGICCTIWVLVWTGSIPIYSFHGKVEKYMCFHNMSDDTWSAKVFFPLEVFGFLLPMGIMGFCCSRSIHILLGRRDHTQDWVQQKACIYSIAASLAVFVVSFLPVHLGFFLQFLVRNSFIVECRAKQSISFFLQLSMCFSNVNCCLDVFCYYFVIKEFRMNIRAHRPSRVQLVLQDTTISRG
Ion channel NompC, sequence (Q7T1G6 whole entry): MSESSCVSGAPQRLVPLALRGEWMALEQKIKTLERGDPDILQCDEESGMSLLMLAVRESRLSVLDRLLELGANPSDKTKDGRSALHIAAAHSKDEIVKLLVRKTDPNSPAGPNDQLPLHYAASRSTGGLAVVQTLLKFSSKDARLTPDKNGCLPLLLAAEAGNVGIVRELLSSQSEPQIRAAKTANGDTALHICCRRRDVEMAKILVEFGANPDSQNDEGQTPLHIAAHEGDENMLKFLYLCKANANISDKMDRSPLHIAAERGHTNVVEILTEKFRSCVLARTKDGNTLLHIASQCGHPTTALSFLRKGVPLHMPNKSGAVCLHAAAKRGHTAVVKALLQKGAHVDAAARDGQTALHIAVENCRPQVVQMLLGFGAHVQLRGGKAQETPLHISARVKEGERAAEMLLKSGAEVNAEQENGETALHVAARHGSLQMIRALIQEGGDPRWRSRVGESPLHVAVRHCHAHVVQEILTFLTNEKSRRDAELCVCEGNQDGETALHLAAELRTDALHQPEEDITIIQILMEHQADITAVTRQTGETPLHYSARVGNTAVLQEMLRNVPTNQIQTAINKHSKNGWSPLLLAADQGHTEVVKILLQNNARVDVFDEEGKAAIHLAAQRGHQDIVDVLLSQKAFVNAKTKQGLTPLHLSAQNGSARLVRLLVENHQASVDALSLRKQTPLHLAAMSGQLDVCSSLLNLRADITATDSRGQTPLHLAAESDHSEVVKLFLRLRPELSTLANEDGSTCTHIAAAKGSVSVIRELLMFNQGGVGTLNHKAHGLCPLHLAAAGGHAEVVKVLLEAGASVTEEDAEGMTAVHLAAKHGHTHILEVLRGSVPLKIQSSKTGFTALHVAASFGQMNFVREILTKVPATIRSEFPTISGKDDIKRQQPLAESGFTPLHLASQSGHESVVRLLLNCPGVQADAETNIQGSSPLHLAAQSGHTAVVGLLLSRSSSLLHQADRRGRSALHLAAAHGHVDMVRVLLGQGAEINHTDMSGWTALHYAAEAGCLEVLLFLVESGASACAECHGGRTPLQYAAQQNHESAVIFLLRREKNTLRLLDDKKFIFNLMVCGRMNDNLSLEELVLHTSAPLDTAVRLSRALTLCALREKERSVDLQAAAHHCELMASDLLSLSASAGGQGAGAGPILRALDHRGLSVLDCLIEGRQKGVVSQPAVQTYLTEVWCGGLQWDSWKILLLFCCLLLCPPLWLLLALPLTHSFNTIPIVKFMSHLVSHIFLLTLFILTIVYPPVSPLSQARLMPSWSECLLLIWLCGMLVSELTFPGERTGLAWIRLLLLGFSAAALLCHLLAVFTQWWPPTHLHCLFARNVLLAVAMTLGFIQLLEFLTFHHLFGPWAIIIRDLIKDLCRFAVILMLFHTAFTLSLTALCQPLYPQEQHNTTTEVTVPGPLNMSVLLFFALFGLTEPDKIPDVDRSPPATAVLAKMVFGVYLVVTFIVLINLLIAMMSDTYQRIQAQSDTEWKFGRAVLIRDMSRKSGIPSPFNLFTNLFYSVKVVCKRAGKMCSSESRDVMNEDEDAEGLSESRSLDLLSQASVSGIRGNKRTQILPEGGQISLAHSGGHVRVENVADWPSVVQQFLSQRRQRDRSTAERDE
FAD-linked sulfhydryl oxidase ALR, sequence (P55789 whole entry): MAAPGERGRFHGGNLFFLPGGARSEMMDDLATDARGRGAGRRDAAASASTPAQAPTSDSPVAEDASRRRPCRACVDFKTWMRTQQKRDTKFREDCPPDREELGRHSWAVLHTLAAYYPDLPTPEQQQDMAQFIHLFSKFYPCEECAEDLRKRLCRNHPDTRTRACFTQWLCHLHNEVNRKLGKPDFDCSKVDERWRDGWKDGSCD
Luciferin 4-monooxygenase, sequence (P08659 whole entry): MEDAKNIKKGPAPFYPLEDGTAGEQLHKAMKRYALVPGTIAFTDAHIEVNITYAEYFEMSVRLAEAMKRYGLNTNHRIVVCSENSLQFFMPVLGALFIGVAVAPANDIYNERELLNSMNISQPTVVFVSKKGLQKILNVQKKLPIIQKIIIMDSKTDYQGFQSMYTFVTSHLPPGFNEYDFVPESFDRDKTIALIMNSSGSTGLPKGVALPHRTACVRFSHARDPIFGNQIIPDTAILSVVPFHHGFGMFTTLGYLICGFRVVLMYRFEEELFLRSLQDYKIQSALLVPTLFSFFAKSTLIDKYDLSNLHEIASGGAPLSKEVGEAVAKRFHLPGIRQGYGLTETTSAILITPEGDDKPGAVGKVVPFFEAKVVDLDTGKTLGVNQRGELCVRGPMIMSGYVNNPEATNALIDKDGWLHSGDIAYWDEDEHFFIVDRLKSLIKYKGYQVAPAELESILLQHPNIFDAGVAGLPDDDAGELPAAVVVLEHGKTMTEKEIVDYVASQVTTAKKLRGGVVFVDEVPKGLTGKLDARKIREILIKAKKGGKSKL

SMILES: O=C(Nc1cccnc1)Nc1ccc2c(c1)OCO2
- EC50 [1]: 152 µM (active)

SMILES: Cc1nc(NC(=O)c2csc3ccccc23)sc1C
- EC50 (Mucolipin-3): 8.95 µM (active)
- EC50 (Ion channel NompC): > 29.9 µM (not active)

SMILES: Cc1cncc(NC(=O)Nc2cccc(F)c2)c1
- EC50 [1]: 12.4 µM (active)

SMILES: CC1CCN(S(=O)(=O)c2ccc(Br)s2)CC1
- EC50 (Mucolipin-3): > 29.9 µM (not active)
- EC50 (Ion channel NompC): > 29.9 µM (not active)

SMILES: COc1ccccc1-c1cc(C(F)(F)F)nc(S(=O)(=O)CCCC(=O)Nc2cc(C)on2)n1
- Absolute IC50 (CHOP) [2]: 10 µM
- AC50 [3]: 6.57 µM (active)
- AC50 [4]: 28 µM (active)
- AC50 [5]: 16 µM (active)

SMILES: CCCSc1ccc(-c2nn(-c3ccccc3)cc2/C=C(/C#N)C(=O)N2CCOCC2)cc1
- IC50 [6]: < 0.5 µM (active)

SMILES: CCC(Cc1ccccc1)n1c(=S)[nH]c2ccccc2c1=O (stereo unspecified)
- EC50 (cells [7]): > 350 µM (not active)
- EC50 (cells [8]): > 350 µM (not active)
- Absolute IC50 (CHOP) [2]: 10 µM

SMILES: Cc1ccc(CN2C(=O)N/C(=C\c3cccn3-c3cccc(C(=O)O)c3)C2=O)cc1
- EC50 [9]: > 300 µM (not active)
- EC50 [10]: > 300 µM (not active)
- IC50 [11]: 10.3 µM (active)
- IC50 [12]: 25.7 µM (active)
- AC50 [13]: 12.8 µM (active)

SMILES: Cc1cc(NC(=O)COC(=O)c2ccccc2S(=O)(=O)N(C)c2ccccc2)no1
- CC50 [14]: 34.1 µM (active)
- IC50 (Vero [15]): > 25 µM (active)
- CC50 (Vero [16]): > 25 µM (active)
- IC50 (cells [17]): 9.76 µM (active)

SMILES: O=C(CSc1nnnn1-c1ccccc1)Nc1ccc(N2CCOCC2)c(Cl)c1
- IC50 [11]: 6.63 µM (active)
- IC50 [12]: 9.68 µM (active)

SMILES: Cc1ccc(C=Cc2ccc(N(C)C)cc2)[n+](C)c1
- EC50 [18]: > 160 µM (inconclusive)
- EC50 (HEK293 [19]): 4.84 µM (active)
- IC50 (HEK293 [20]): 10.8 µM (active)
- EC50 [21]: 3.83 µM (active)
- IC50 (HEK293 [22]): > 20 µM (inactive)
- IC50 (HEK293 [23]): 16 µM (inactive)
- EC50 [24]: 0.232 µM (active)
- EC50 [25]: 16.1 µM (active)
- IC50 [11]: 3.16 µM (active)
- IC50 [26]: > 80 µM (inactive)
- AC50 [27]: 1.24 µM (active)
- IC50 [12]: 4.34 µM (active)

SMILES: Cc1ccc(-c2nc3cc(NC(=O)C(C)C)ccc3o2)cc1
- EC50 [28]: 0.23 µM (active)
- EC50 (HT-1080): > 50 µM (not active)

SMILES: Cc1cc(NC(=O)Nc2cccc(F)c2)cnc1Br
- EC50 [1]: 6.61 µM (active)

SMILES: Cc1cc(N)n2nc(-c3ccccc3)c(-c3ccccc3)c2n1
- IC50 [6]: 2.35 µM (active)
